Reference: patent US20260242789A1 (priority 2023, published 2026)
Structures can show the parent of a compound that is named as a salt. Where two headings read alike, the source gives them in different places.

Tests used:
[1] = target: T1, SAMD9^134-385 protein (SAMD9 tRNase) (Homo sapiens, UniProt Q5K651); format: biochemical; details: at 2×IC50 concentration, two hours of reaction
T1 construct: The recombinant SAMD9^134-385 or SAMD9^156-385 protein was expressed and purified from E. coli; SUMO (cleaved yes); 6xHis (cleaved yes); made in house; host or cells: E. coli
T1 sequence (Q5K651 134-385): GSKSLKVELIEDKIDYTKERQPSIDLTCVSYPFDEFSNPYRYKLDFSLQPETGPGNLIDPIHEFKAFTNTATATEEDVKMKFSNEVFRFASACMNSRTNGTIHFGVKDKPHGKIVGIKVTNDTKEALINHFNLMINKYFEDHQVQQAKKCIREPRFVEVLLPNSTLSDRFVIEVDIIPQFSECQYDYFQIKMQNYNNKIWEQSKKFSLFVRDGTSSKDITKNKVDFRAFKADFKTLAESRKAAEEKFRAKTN

[2] = target: T2, SAMD9 tRNase:tRNA complex (Homo sapiens, UniProt Q5K651); format: binding
T2 construct: The recombinant SAMD9^134-385 or SAMD9^156-385 protein was expressed and purified from E. coli; SUMO (cleaved yes); 6xHis (cleaved yes); made in house; host or cells: E. coli
T2 sequence (Q5K651 134-385): T1 sequence (Q5K651 134-385)

[3] = target: T1, SAMD9^134-385 protein (SAMD9 tRNase); assay: biochemical

Compound: Salvianolic acid B
- cleavage of yeast tRNA by SAMD9 tRNase [1]: blocked
- disruption of the SAMD9 tRNase:tRNA complex ([2]; 20:1 molar ratio): minor effect
- disruption of the SAMD9 tRNase:tRNA complex ([2]; 100:1 molar ratio): did not completely disrupt
- IC50 ([3]; dose response studies, cleavage of Phe17-Fret by SAMD9 tRNase, read-out: IC50): 3000 nM

Compound: NCCOc1cc(C(=O)Nc2cc(OCCN)c3ccccc3n2)nc(C(=O)Nc2cc(OCCN)c3ccccc3n2)c1 [Pyridostatin TFA]
- cleavage of yeast tRNA by SAMD9 tRNase [1]: partially reduced
- IC50 [3]: 7800 nM

Compound: Cc1cc(-c2ccc(/N=N/c3ccc4c(S(=O)(=O)O)cc(S(=O)(=O)O)c(N)c4c3O)c(C)c2)ccc1/N=N/c1ccc2c(S(=O)(=O)O)cc(S(=O)(=O)O)c(N)c2c1O [Evans Blue]
- cleavage of yeast tRNA by SAMD9 tRNase [1]: blocked
- disruption of the SAMD9 tRNase:tRNA complex ([2]; 2:1 molar ratio): disrupted the complex
- disruption of the SAMD9 tRNase:tRNA complex ([2]; 20:1 molar ratio): completely disrupted
- IC50 [3]: 1200 nM
